Source: patent US12030896B2, “PIKfyve inhibitors” (Mayo Foundation for Medical Education and Research, priority 2018, dated 2024)

Tests used:
[1] = Solubility; format: physicochemical
Method: The compound has a molecular weight of 428.5. It is soluble in DMSO. In addition, solutions of at least 10 mg/ml can be prepared using a mixture of DMSO (10%), cremaphor (20%), and water (70%).

[2] = target: PIKfyve (Homo sapiens, UniProt Q9Y2I7); assay: Kinase panel screen: inhibition of PIKfyve; format: binding; conditions: 50 nM
Method: No other kinase was blocked to that extent by 50 nM of Example 1, indicating its high degree of selectivity.
In contrast, 50 nM Apilimod inhibited two kinases to 1% or 10%, and 3 kinases to 35% of control. To examine non-specific binding at higher concentrations, Example 1, Example 3, and Apilimod were tested at 5000 nM. […] PIKfyve is represented at the bottom left of each dendrogram.

Chain of PIKfyve (Q9Y2I7 whole entry): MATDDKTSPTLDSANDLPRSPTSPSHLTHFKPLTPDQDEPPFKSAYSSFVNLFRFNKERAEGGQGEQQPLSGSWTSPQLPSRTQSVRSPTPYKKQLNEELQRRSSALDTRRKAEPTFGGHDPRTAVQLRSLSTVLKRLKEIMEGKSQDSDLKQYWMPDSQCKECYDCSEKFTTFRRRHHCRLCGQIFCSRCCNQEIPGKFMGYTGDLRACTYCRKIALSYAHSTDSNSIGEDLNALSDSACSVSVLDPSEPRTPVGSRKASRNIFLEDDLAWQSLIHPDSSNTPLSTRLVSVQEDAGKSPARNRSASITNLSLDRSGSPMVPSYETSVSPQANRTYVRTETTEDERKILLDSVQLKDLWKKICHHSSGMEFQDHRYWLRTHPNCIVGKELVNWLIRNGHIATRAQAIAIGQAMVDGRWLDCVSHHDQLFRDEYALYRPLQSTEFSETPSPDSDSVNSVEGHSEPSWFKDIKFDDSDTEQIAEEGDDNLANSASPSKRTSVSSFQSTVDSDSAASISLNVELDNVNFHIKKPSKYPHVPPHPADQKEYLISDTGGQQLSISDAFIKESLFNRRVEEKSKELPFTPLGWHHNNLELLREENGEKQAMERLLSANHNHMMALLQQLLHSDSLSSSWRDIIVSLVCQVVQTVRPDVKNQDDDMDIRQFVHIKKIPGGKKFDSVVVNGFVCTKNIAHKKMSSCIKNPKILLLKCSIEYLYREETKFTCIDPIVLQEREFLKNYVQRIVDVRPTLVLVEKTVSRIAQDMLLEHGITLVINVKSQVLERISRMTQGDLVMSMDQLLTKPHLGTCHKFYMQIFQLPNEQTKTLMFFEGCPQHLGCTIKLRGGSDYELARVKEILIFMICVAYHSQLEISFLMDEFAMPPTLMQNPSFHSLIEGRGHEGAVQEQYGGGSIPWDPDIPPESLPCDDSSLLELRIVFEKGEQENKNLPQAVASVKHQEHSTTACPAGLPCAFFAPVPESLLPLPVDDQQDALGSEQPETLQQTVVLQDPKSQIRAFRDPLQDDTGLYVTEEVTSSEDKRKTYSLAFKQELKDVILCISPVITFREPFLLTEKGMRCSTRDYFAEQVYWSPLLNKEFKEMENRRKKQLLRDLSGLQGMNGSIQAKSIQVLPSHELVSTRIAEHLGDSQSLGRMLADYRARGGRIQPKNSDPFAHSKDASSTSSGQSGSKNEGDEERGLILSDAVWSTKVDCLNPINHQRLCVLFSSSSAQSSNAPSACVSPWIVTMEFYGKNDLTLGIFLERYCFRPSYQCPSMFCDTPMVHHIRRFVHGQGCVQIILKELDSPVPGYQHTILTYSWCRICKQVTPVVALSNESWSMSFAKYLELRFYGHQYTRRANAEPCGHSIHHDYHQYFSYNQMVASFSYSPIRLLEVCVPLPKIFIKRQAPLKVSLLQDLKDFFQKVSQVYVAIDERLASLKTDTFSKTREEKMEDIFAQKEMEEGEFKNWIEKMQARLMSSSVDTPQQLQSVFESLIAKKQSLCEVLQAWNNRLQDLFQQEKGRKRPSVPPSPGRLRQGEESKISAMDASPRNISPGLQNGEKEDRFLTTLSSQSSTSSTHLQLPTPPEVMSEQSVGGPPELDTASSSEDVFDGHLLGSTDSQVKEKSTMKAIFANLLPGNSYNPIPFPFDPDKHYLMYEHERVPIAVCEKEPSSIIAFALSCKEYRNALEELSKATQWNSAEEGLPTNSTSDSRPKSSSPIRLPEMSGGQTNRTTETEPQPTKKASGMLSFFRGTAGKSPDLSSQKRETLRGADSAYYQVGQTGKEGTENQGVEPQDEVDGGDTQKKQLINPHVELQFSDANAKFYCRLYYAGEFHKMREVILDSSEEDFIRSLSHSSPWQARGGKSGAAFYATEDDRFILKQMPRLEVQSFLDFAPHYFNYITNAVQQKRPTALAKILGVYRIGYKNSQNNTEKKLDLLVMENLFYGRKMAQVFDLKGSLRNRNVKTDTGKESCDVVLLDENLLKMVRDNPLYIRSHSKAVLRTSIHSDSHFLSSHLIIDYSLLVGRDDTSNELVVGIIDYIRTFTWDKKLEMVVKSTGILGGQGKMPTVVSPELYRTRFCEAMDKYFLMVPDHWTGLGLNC

Cc1ccc(Nc2nc(N/N=C/c3c[nH]c4ccccc34)nc(N3CCOCC3)n2)cc1 [Example 1, (E)-4-(2-((1H-indol-3-yl)methylene)hydrazinyl)-6-morpholino-N-(p-tolyl)-1,3,5-triazin-2-amine]
solubility in DMSO ([1]; DMSO): soluble | concentration of solutions that can be prepared ([1]; DMSO (10%), cremaphor (20%), and water (70%)): at least 10 mg/ml | inhibition at 0.05 µM [2]: > 99%
